Target: T1, human ALK5 (Homo sapiens, UniProt P36897)
T1 construct: human ALK5 (recombinant TGF β1 N-term GST-tagged, 80-end); GST (N); purchased
T1 sequence (P36897 80-503 limits assumed): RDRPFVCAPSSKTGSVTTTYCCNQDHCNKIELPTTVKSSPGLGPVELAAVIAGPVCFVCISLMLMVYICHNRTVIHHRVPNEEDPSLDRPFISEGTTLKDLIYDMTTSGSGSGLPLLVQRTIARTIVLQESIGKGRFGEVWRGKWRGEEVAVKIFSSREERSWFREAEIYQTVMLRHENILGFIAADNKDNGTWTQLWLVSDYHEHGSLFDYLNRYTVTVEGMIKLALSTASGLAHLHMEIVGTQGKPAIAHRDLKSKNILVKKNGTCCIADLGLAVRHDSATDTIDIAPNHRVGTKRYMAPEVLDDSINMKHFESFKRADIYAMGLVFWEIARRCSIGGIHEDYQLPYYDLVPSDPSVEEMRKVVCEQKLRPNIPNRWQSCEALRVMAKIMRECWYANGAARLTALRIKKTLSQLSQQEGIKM
Test: ADP-GLO Kinases assay of ALK5 enzymatic activity
Type: biochemical
Settings: purified recombinant human ALK5, TGFβ1 peptide substrate, pIC50 converted to pKi by Cheng-Prusoff, high ATP protocol (15 μM) for very potent compounds, 25° C.
Method: The enzymatic activity of compounds of the present invention was monitored measuring the formation of ADP using the ADP-GLO Kinases assay. Following the incubation of the purified enzyme, a substrate and ATP, the produced ADP was converted into ATP, which in turn was converted into light by Ultra-Glo Luciferase. The luminescent signal positively correlated with ADP amount and kinase activity. […] Compound and ALK5 kinase were mixed and incubated for 15 mins. […] After an incubation of 120 min, the reaction was stopped, and ADP production detected with ADP-Glo kit according to manufacturer's indications. […] After an incubation of 60 min, the kinase reaction was stopped, and ADP production detected with ADP-Glo kit according to manufacturer's indications. All reaction and incubation steps were performed at 25° C. and the assays were performed in 384-well format and validated using a selection of reference compounds tested in 11-point concentration-response curve. […] Results were expressed as pIC50 (negative logarithm of IC50) and subsequently converted to pKi (negative logarithm of […]) using the Cheng-Prusoff equation. The higher the value of pKi, the greater the inhibition of ALK5 activity.

SMILES | Ki
CN1CCN(CCOc2ccc3c(Nc4cc(-c5cc(Cl)ccc5F)nnc4OCC(F)F)ccnc3c2)CC1 [Example 3, N-[6-(5-chloro-2-fluorophenyl)-3-(2,2-difluoroethoxy)pyridazin-4-yl]-7-[2-(4-methylpiperazin-1-yl)ethoxy]quinolin-4-amine] | ≤ 0.1 nM
CSCCCOc1nnc(-c2cc(Cl)ccc2F)cc1Nc1ccnc(NC(=O)CCN2CCN(C)CC2)c1 [Example 4, N-(4-{[6-(5-chloro-2-fluorophenyl)-3-[3-(methylsulfanyl)propoxy]pyridazin-4-yl]amino}pyridin-2-yl)-3-(4-methylpiperazin-1-yl)propanamide] | 0.126 to 0.316 nM
CN1CCN(CCOc2ccc3c(Nc4cc(-c5cc(Cl)ccc5F)nnc4OCCN)ccnc3c2)CC1 [Example 5, N-[3-(2-aminoethoxy)-6-(5-chloro-2-fluorophenyl)pyridazin-4-yl]-7-[2-(4-methylpiperazin-1-yl)ethoxy]quinolin-4-amine] | 0.126 to 0.316 nM
CN1CCN(CCOc2ccc3c(Nc4cc(-c5cc(Cl)ccc5F)nnc4OCCNS(C)(=O)=O)ccnc3c2)CC1 [Example 6, N-(2-{[6-(5-chloro-2-fluorophenyl)-4-({7-[2-(4-methylpiperazin-1-yl)ethoxy]quinolin-4-yl}amino)pyridazin-3-yl]oxy}ethyl)methanesulfonamide] | ≤ 0.1 nM
CN1CCN(CCC(=O)Nc2cc(Nc3cc(-c4cc(Cl)ccc4F)nnc3OCCCS(C)(=O)=O)ccn2)CC1 [Example 7, N-(4-{[6-(5-chloro-2-fluorophenyl)-3-(3-methanesulfonylpropoxy)pyridazin-4-yl]amino}pyridin-2-yl)-3-(4-methylpiperazin-1-yl)propanamide] | ≤ 0.1 nM
CN1CCN(CCC(=O)Nc2cc(Nc3cc(-c4cc(Cl)ccc4F)nnc3OCCN)ccn2)CC1 [Example 8, N-(4-{[3-(2-aminoethoxy)-6-(5-chloro-2-fluorophenyl)pyridazin-4-yl]amino}pyridin-2-yl)-3-(4-methylpiperazin-1-yl)propanamide] | 0.126 to 0.316 nM
CN1CCN(CCC(=O)Nc2cc(Nc3cc(-c4cc(Cl)ccc4F)nnc3OCCNS(C)(=O)=O)ccn2)CC1 [Example 9, N-(4-{[6-(5-chloro-2-fluorophenyl)-3-(2-methanesulfonamidoethoxy)pyridazin-4-yl]amino}pyridin-2-yl)-3-(4-methylpiperazin-1-yl)propanamide] | ≤ 0.1 nM
COC(=O)c1cc2c(Nc3cc(-c4cc(Cl)ccc4F)nnc3OCCCN(C)C)ccnc2[nH]1 [Example 10, methyl 4-{[6-(5-chloro-2-fluorophenyl)-3-[3-(dimethylamino)propoxy]pyridazin-4-yl]amino}-1H-pyrrolo[2,3-b]pyridine-2-carboxylate] | 0.398 to 3.16 nM
COC(=O)c1cc2c(Nc3cc(-c4cc(Cl)ccc4F)nnc3OCCC[N+](C)(C)C)ccnc2[nH]1 [Example 11, (3-{[6-(5-chloro-2-fluorophenyl)-4-{[2-(methoxycarbonyl)-1H-pyrrolo[2,3-b]pyridin-4-yl]amino}pyridazin-3-yl]oxy}propyl)trimethylazanium chloride] | 0.398 to 3.16 nM
COC(=O)C1CN(CC(=O)Nc2cc(Nc3cc(-c4cc(Cl)ccc4F)nnc3OCCN(C)C)ccn2)CCN1C (centres unmarked) [Example 12, methyl 4-{[(4-{[6-(5-chloro-2-fluorophenyl)-3-[2-(dimethylamino)ethoxy]pyridazin-4-yl]amino}pyridin-2-yl)carbamoyl]methyl}-1-methylpiperazine-2-carboxylate] | 0.126 to 0.316 nM
COc1nnc(-c2cc(Cl)ccc2F)cc1Nc1ccnc(NC(=O)CCN2CCN(CC(F)(F)F)CC2)c1 [Example 13, N-(4-{[6-(5-chloro-2-fluorophenyl)-3-methoxypyridazin-4-yl]amino}pyridin-2-yl)-3-[4-(2,2,2-trifluoroethyl)piperazin-1-yl]propanamide] | ≤ 0.1 nM
COc1nnc(-c2cc(Cl)ccc2F)cc1Nc1ccnc(NC(=O)CN2CCN(CC(F)(F)F)CC2)c1 [Example 14, N-(4-{[6-(5-chloro-2-fluorophenyl)-3-methoxypyridazin-4-yl]amino}pyridin-2-yl)-2-[4-(2,2,2-trifluoroethyl)piperazin-1-yl]acetamide] | ≤ 0.1 nM
COC(=O)COc1nnc(-c2cc(Cl)ccc2F)cc1Nc1ccnc(NC(=O)CCN2CCN(C)CC2)c1 [Example 15, methyl 2-{[6-(5-chloro-2-fluorophenyl)-4-({2-[3-(4-methylpiperazin-1-yl)propanamido]pyridin-4-yl}amino)pyridazin-3-yl]oxy}acetate] | 0.126 to 0.316 nM
CSc1nnc(-c2cc(Cl)ccc2F)cc1Nc1ccnc(NC(=O)CCN2CCN(C)CC2)c1 [Example 16, N-(4-{[6-(5-chloro-2-fluorophenyl)-3-(methylsulfanyl)pyridazin-4-yl]amino}pyridin-2-yl)-3-(4-methylpiperazin-1-yl)propanamide] | ≤ 0.1 nM
CN1CCN(CCC(=O)Nc2cc(Nc3cc(-c4cc(Cl)ccc4F)nnc3[S+](C)[O-])ccn2)CC1 (centres unmarked) [Example 17, N-(4-{[6-(5-chloro-2-fluorophenyl)-3-methanesulfinylpyridazin-4-yl]amino}pyridin-2-yl)-3-(4-methylpiperazin-1-yl)propanamide] | 0.126 to 0.316 nM
CN1CCN(CCC(=O)Nc2cc(Nc3cc(-c4cc(Cl)ccc4F)nnc3S(C)(=O)=O)ccn2)CC1 [Example 18, N-(4-{[6-(5-chloro-2-fluorophenyl)-3-methanesulfonylpyridazin-4-yl]amino}pyridin-2-yl)-3-(4-methylpiperazin-1-yl)propanamide] | 0.126 to 0.316 nM
CN1CCN(CCC(=O)Nc2cc(Nc3cc(-c4cc(Cl)ccc4F)nnc3S(C)(=N)=O)ccn2)CC1 (centres unmarked) [Example 19, N-(4-{[6-(5-chloro-2-fluorophenyl)-3-[imino(methyl)oxo-λ^6-sulfanyl]pyridazin-4-yl]amino}pyridin-2-yl)-3-(4-methylpiperazin-1-yl)propanamide] | 0.398 to 3.16 nM
CSc1nnc(-c2cc(Cl)ccc2F)cc1Nc1ccnc(NC(=O)CCN2CCN(CCN)CC2)c1 [Example 20, 3-[4-(2-aminoethyl)piperazin-1-yl]-N-(4-{[6-(5-chloro-2-fluorophenyl)-3-(methylsulfanyl)pyridazin-4-yl]amino}pyridin-2-yl)propanamide] | ≤ 0.1 nM
COC(=O)NCCN1CCN(CCC(=O)Nc2cc(Nc3cc(-c4cc(Cl)ccc4F)nnc3SC)ccn2)CC1 [Example 21, methyl N-[2-(4-{2-[(4-{[6-(5-chloro-2-fluorophenyl)-3-(methylsulfanyl)pyridazin-4-yl]amino}pyridin-2-yl)carbamoyl]ethyl}piperazin-1-yl)ethyl]carbamate] | ≤ 0.1 nM
CN1CCN(CCCC(=O)Nc2cc(Nc3cc(-c4cc(Cl)ccc4F)nnc3SCCO)ccn2)CC1 [Example 23, N-(4-{[6-(5-chloro-2-fluorophenyl)-3-[(2-hydroxyethyl)sulfanyl]pyridazin-4-yl]amino}pyridin-2-yl)-4-(4-methylpiperazin-1-yl)butanamide] | 0.126 to 0.316 nM
CN1CC2(C1)CN(CC(=O)Nc1cc(Nc3cc(-c4cc(Cl)ccc4F)nnc3SCCO)ccn1)C2 [Example 24, N-(4-{[6-(5-chloro-2-fluorophenyl)-3-[(2-hydroxyethyl)sulfanyl]pyridazin-4-yl]amino}pyridin-2-yl)-2-{6-methyl-2,6-diazaspiro[3.3]heptan-2-yl}acetamide] | ≤ 0.1 nM
CN1CC2CC1CN2CC(=O)Nc1cc(Nc2cc(-c3cc(Cl)ccc3F)nnc2SCCO)ccn1 (centres unmarked) [Example 25, N-(4-{[6-(5-chloro-2-fluorophenyl)-3-[(2-hydroxyethyl)sulfanyl]pyridazin-4-yl]amino}pyridin-2-yl)-2-{5-methyl-2,5-diazabicyclo[2.2.1]heptan-2-yl}acetamide] | ≤ 0.1 nM
CN1CCC2(CCN(C(=O)Nc3cc(Nc4cc(-c5cc(Cl)ccc5F)nnc4SCCO)ccn3)CC2)C1 [Example 26, N-(4-{[6-(5-chloro-2-fluorophenyl)-3-[(2-hydroxyethyl)sulfanyl]pyridazin-4-yl]amino}pyridin-2-yl)-2-methyl-2,8-diazaspiro[4.5]decane-8-carboxamide] | ≤ 0.1 nM
CN1CCCN(CC(=O)Nc2cc(Nc3cc(-c4cc(Cl)ccc4F)nnc3SCCO)ccn2)CC1 [Example 27, N-(4-{[6-(5-chloro-2-fluorophenyl)-3-[(2-hydroxyethyl)sulfanyl]pyridazin-4-yl]amino}pyridin-2-yl)-2-(4-methyl-1,4-diazepan-1-yl)acetamide] | ≤ 0.1 nM
CN1CCN(CCC(=O)Nc2cc(Nc3cc(-c4cc(Cl)ccc4F)nnc3SCCCO)ccn2)CC1 [Example 28, N-(4-{[6-(5-chloro-2-fluorophenyl)-3-[(3-hydroxypropyl)sulfanyl]pyridazin-4-yl]amino}pyridin-2-yl)-3-(4-methylpiperazin-1-yl)propanamide] | ≤ 0.1 nM
CNc1nnc(-c2cc(Cl)ccc2F)cc1Nc1ccnc(NC(=O)CCN2CCN(C)CC2)c1 [Example 29] | ≤ 0.1 nM

From patent US20250011299A1, “PYRIDAZINYL AMINO DERIVATIVES AS ALK5 INHIBITORS” (CHIESI FARMACEUTICI S.P.A., priority 2021, published 2025)
